The assay deals with T1, CYP110 (Nostoc sp. PCC 7120 = FACHB-418, UniProt P29980).
T1 construct: recombinant, expressed in E. coli from pUC8 vector, purified soluble fraction; about 50 kDa; U38537 is the complete nifD element carrying cyp110
T1 sequence (P29980 1-459): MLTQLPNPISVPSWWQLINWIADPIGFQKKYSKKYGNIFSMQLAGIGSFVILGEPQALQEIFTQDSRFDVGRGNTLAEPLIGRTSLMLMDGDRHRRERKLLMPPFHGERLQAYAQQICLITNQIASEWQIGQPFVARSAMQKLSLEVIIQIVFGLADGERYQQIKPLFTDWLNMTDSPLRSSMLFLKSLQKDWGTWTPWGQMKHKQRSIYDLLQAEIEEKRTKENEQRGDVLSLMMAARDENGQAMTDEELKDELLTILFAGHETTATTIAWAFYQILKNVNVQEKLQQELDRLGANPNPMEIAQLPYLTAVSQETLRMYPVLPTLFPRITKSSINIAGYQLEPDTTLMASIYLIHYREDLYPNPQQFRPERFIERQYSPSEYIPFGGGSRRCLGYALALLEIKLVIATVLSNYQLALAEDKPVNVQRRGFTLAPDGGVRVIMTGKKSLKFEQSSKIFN
The experiment in a line: UV-visible spectral shift titration. In kind it is binding. Particulars: read-out: Ks. The source says: UV-visible spectral shift titration on CYP110

As to `CCCCCCCCCCCCCCCC(=O)O` [Hexadecanoic Acid], the Kd stood at 500 µM.
`CCCCCCCCCCCC(=O)NC` [N-methyl Lauryl Amide]: the Kd stood at 2560 µM.
Turning to `CCCCC/C=C\C/C=C\C/C=C\C/C=C\CCCC(=O)O` [Arachidonic Acid], the Kd came to 51 µM.
Take `CCCCCN` [Pentyl Amine]: the Kd turned out to be 540 µM.
For the compound `CCCCCCCN` [Heptyl Amine], the Kd came out at 102 µM.
In the case of `CCCCCCCCCCCCCC(=O)O` [Tetradecanoic Acid] it was 91 µM; in that of `CCCCCCCCN` [Ocytl Amine], 81 µM; in that of `CCCCCCCCCN` [Nonyl Amine], 62 µM.
With `CCCCCCCCCCCC(N)=O` [Lauryl Amide], the Kd came out at 2210 µM.
In the case of `CCCCCCCCCCCC(=O)O` [Dodecanoic Acid] it was 1900 µM.
In the case of `CCCCCCN` [Hexyl Amine] it was 320 µM; in that of `CCCCCCCCCCCCCCCCCC(=O)O` [Octadecanoic Acid], 3100 µM; in that of `CCCCCCCCCCCCCCCCC(=O)O` [Heptadecanoic Acid], 1100 µM.
The value for `CCCCCCCCCCCCN` [Dodecyl Amine] was 12 µM; that for `CC/C=C\C/C=C\C/C=C\CCCCCCCC(=O)O` [9,12,15-Octadecatrienoic Acid] was 62 µM; that for `NCCCCCCCCCCCC(=O)O` [12-Aminododecanoic Acid] was 416 µM.
On to `CCCCCC=CCC=CCCCCCCCC(=O)O` [9,12-Octadecadienoic Acid], for which the Kd came out at 720 µM.
The value for `CCCCCCCCCCCCC(=O)O` [Tridecanoic Acid] was 850 µM.
The value for `CCCCCCCCCCN` [Decyl Amine] was 41 µM.
On to `CCCCCCCCCCCCCCC(=O)O` [Pentadecanoic Acid], for which the Kd stood at 210 µM.

(Values after PMC1079853, “Alkane-induced expression, substrate binding profile, and immunolocalization of a cytochrome P450 encoded on the nifD excision element of Anabaena 7120” (BMC Microbiology, 2005).)
